From patent US10548912B2, “Dosage regimen for a tiacumicin compound” (Astellas Pharma Europe Ltd., priority 2015, dated 2020)
Read-outs that look alike come from different tables or passages of the source.

Key:
[1] = test system: Clostridium difficile infection; assay: Phase IIIb/IV randomized open-label EXTEND study (2819-MA-1002): extended fidaxomicin vs standard vancomycin; type: in vivo, human
Method: Fidaxomicin (FDX) is believed to reduce recurrence primarily through minimal collateral damage to colonic microflora. […] Subjects will receive 200 mg twice daily (b.i.d.) for 5 days from Day 1 to Day 5. From Day 6 to Day 25, subjects will receive 200 mg once daily on alternate days (first alternate day dose given on Day 7). This extension of the dose will allow a longer period for the protective microflora to recover and extend the period of time over which Clostridium difficile cells are suppressed, and kill any dormant spores that germinate. The extension of the dose also targets the early recurrence period documented in the phase 3 studies—the first 15 days after the end of therapy during which the majority of recurrences occurred. By covering this period this revised dosing regimen may reduce the recurrence to <10%, preferably to <5% and even more preferred to <3%. The impact on the gut microflora was limited supporting the rationale for this study.
The dosing of vancomycin (Vancocin™) to be administered in this study is in line with the SmPC for Vancocin. Subjects will receive 125 mg four times daily (q.i.d.) for 10 days from Day 1 to Day 10.
The dosage regimen was as described in Table 1 of Example 1.

[2] = test system: Clostridium difficile toxin A and B; assay: Single patient cases of Examples 6 and 7, indicator-guided switch to intermittent fidaxomicin; type: in vivo, human
Method: (§1) A patient being tested positively for Clostridium difficile toxin A and B (using a suitable assay known in the art) and having >5 UBM per day is treated with 200 mg Fidaxomicin twice a day in an initial course of treatment. The number of UBM is monitored daily to establish if the number of UBM will change positively to ≤3 UBM per day. At day 2 of the initial course of treatment the UBM is reduced to 2 UBM per day and at day 3 to 1 UBM per day. Since the UBM is below 4 UBM per day and even below 3 UBM per day for 2 consecutive days, the dosage regimen is switched to the intermittent course of treatment by administering to the patient 200 mg Fidaxomicin every other day starting from day 5 until Clostridium difficile toxin A and B are tested negative. The presence of Clostridium difficile toxin A and B is tested negative at day 12 after start of treatment (using a suitable assay known in the art).
as §1, with “day 9 and 10” for “day 2”, “to” for “to 2 UBM per day and at day”, “3” for “3 to 1”, “4” for “4 UBM per day and even below 3”, “day 12” for “day 5”, “day 27” for “day 12”

[3] = test system: Clostridium difficile infection; settings: Cornely 2012; 200 mg Fidaxomicin twice daily or vancomycin 125 mg four times daily orally for 10 days; cited from earlier work
[4] = test system: Clostridium difficile infections (CDI); settings: cited from earlier work
[5] = Day 55, extended fidaxomicin or standard vancomycin
[6] = Table 7, extended fidaxomicin regimen of Example 1 or standard vancomycin
[7] = extended fidaxomicin Day 55, standard vancomycin Day 40
[8] = FID-CH: 10-day fidaxomicin chaser after repeat CDI treatment, 8 courses, excluding RCDI due to antimicrobial exposure
[9] = FID-TX: 200 mg BID for 10 days, of 3 courses

CCc1c(Cl)c(O)c(Cl)c(O)c1C(=O)O[C@H]1[C@H](O)[C@H](OC)[C@H](OC/C2=C\C=C\C[C@H](O)/C(C)=C/[C@H](CC)[C@@H](O[C@@H]3OC(C)(C)[C@@H](OC(=O)C(C)C)[C@H](O)[C@@H]3O)/C(C)=C/C(C)=C/C[C@@H]([C@@H](C)O)OC2=O)O[C@@H]1C [fidaxomicin, 3-[[[6-deoxy-4-O-(3,5-dichloro-2-ethyl-4,6-dihydroxybenzoyl)-2-O-methyl-β-D-mannopyranosyl]oxy]methyl]-12(R)-[[6-deoxy-5-C-methyl-4-O-(2-methyl-1-oxopropyl)-β-D-lyxo-hexopyranosyl]oxy]-11 (S)-ethyl-8(S)-hydroxy-18(S)-(1(R)-hydroxyethyl)-9,13,15-trimethyloxacyclooctadeca-3,5,9,13,15-pentaene-2-one]
Treatment Difference in sustained clinical cure rate (Extended Fidaxomicin − Standard Vancomycin) ([1]; 30 days after end of treatment): 23.8%
OR (Odds Ratio) vs. Vancomycin, sustained clinical cure ([1]; 30 days after end of treatment, extended fidaxomicin): 3.36
% of patients with <3 Unformed bowel movements per day (UBM) ([1]; Day 1): 23%
% of patients with ≥3 Unformed bowel movements per day (UBM) ([1]; Day 1): 77.0%
% of patients with <3 Unformed bowel movements per day (UBM) ([1]; Day 2): 33.8%
% of patients with ≥3 Unformed bowel movements per day (UBM) ([1]; Day 2): 66.2%
% of patients with <3 Unformed bowel movements per day (UBM) ([1]; Day 3): 59%
% of patients with ≥3 Unformed bowel movements per day (UBM) ([1]; Day 3): 41%
% of patients with <3 Unformed bowel movements per day (UBM) ([1]; Day 4): 66.9%
% of patients with ≥3 Unformed bowel movements per day (UBM) ([1]; Day 4): 33.1%
% of patients with <3 Unformed bowel movements per day (UBM) ([1]; Day 5): 73.9%
% of patients with ≥3 Unformed bowel movements per day (UBM) ([1]; Day 5): 26.1%
% of patients with <3 Unformed bowel movements per day (UBM) ([1]; Day 6): 73.9%
% of patients with ≥3 Unformed bowel movements per day (UBM) ([1]; Day 6): 26.1%
% of patients with <3 Unformed bowel movements per day (UBM) ([1]; Day 7): 84.8%
% of patients with ≥3 Unformed bowel movements per day (UBM) ([1]; Day 7): 15.2%
% of patients with <3 Unformed bowel movements per day (UBM) ([1]; Day 8): 89.1%
% of patients with ≥3 Unformed bowel movements per day (UBM) ([1]; Day 8): 10.9%
% of patients with <3 Unformed bowel movements per day (UBM) ([1]; Day 9): 91.3%
% of patients with ≥3 Unformed bowel movements per day (UBM) ([1]; Day 9): 8.7%
% of patients with <3 Unformed bowel movements per day (UBM) ([1]; Day 10): 92.6%
% of patients with ≥3 Unformed bowel movements per day (UBM) ([1]; Day 10): 7.4%
% of patients with <3 Unformed bowel movements per day (UBM) ([1]; Day 11): 93.3%
% of patients with ≥3 Unformed bowel movements per day (UBM) ([1]; Day 11): 6.7%
% of patients with <3 Unformed bowel movements per day (UBM) ([1]; Day 12): 94.8%
% of patients with ≥3 Unformed bowel movements per day (UBM) ([1]; Day 12): 5.2%
% of patients with <3 Unformed bowel movements per day (UBM) ([1]; Day 13): 93.3%
% of patients with ≥3 Unformed bowel movements per day (UBM) ([1]; Day 13): 6.7%
% of patients with <3 Unformed bowel movements per day (UBM) ([1]; Day 14): 95.6%
% of patients with ≥3 Unformed bowel movements per day (UBM) ([1]; Day 14): 4.4%
% of patients with <3 Unformed bowel movements per day (UBM) ([1]; Day 15): 94.8%
% of patients with ≥3 Unformed bowel movements per day (UBM) ([1]; Day 15): 5.2%
% of patients with <3 Unformed bowel movements per day (UBM) ([1]; Day 16): 95.5%
% of patients with ≥3 Unformed bowel movements per day (UBM) ([1]; Day 16): 4.5%
% of patients with <3 Unformed bowel movements per day (UBM) ([1]; Day 17): 95.5%
% of patients with ≥3 Unformed bowel movements per day (UBM) ([1]; Day 17): 4.5%
% of patients with <3 Unformed bowel movements per day (UBM) ([1]; Day 18): 94.0%
% of patients with ≥3 Unformed bowel movements per day (UBM) ([1]; Day 18): 6.0%
% of patients with <3 Unformed bowel movements per day (UBM) ([1]; Day 19): 95.5%
% of patients with ≥3 Unformed bowel movements per day (UBM) ([1]; Day 19): 4.5%
% of patients with <3 Unformed bowel movements per day (UBM) ([1]; Day 20): 97.8%
% of patients with ≥3 Unformed bowel movements per day (UBM) ([1]; Day 20): 2.2%
% of patients with <3 Unformed bowel movements per day (UBM) ([1]; Day 21): 95.5%
% of patients with ≥3 Unformed bowel movements per day (UBM) ([1]; Day 21): 4.5%
% of patients with <3 Unformed bowel movements per day (UBM) ([1]; Day 22): 96.3%
% of patients with ≥3 Unformed bowel movements per day (UBM) ([1]; Day 22): 3.7%
% of patients with <3 Unformed bowel movements per day (UBM) ([1]; Day 23): 95.5%
% of patients with ≥3 Unformed bowel movements per day (UBM) ([1]; Day 23): 4.5%
% of patients with <3 Unformed bowel movements per day (UBM) ([1]; Day 24): 96.2%
% of patients with ≥3 Unformed bowel movements per day (UBM) ([1]; Day 24): 3.8%
% of patients with <3 Unformed bowel movements per day (UBM) ([1]; Day 25): 96.2%
% of patients with ≥3 Unformed bowel movements per day (UBM) ([1]; Day 25): 3.8%
% of patients with <3 Unformed bowel movements per day (UBM) ([1]; Day 26): 97.3%
% of patients with ≥3 Unformed bowel movements per day (UBM) ([1]; Day 26): 2.7%
% of patients with <3 Unformed bowel movements per day (UBM) ([1]; Day 27): 98.5%
% of patients with ≥3 Unformed bowel movements per day (UBM) ([1]; Day 27): 1.5%
Treatment Difference in recurrence rate (Extended fidaxomicin − Standard vancomycin) ([1]; Day 55): −12.6%
OR (Odds Ratio) vs. Vancomycin, recurrence of CDI ([1]; Day 55, extended fidaxomicin): 0.21
Recurrence of CDI (%) at visit 5 (Day 55) [1, 5]: (3.5) %
Recurrence of CDI at visit 5 (Day 55) (patients/N) [1, 5]: 5/142
Recurrence of CDI (%) at visit 5 (Day 55) ([1]; Day 55, extended fidaxomicin or standard vancomycin, listed as FDX): 3.5%
Recurrence 30 days after end of treatment (%) [1, 6]: 3.5%
Recurrence 30 days after end of treatment (patients/N) [1, 6]: 5/142
Sustained clinical cure (%) at 30 days after end of treatment [1, 7]: (86.7) %
Sustained clinical cure at 30 days after end of treatment (patients/N) [1, 7]: 124/143
Sustained clinical cure (%) at 30 days after end of treatment ([1]; extended fidaxomicin Day 55, standard vancomycin Day 40, listed as FDX): 86.7%
UBM per day ([2]; Example 6 patient, day 2 of initial course 200 mg twice a day, >5 UBM per day before): 2 UBM per day
UBM per day ([2]; Example 6 patient, day 3 of initial course 200 mg twice a day): 1 UBM per day
Presence of Clostridium difficile toxin A and B ([2]; Example 6 patient, day 12 after start of treatment, 200 mg every other day from day 5): negative
UBM per day ([2]; Example 7 patient, day 9 and 10 of initial course 200 mg twice a day, >5 UBM per day before): 3 UBM per day
Presence of Clostridium difficile toxin A and B ([2]; Example 7 patient, day 27 after start of treatment, 200 mg every other day from day 12): negative
Recurrence 30 days after end of treatment (%) [3]: 12.7%
Recurrence 30 days after end of treatment (patients/N) [3]: 28/221
Sustained clinical cure 30 days after end of treatment (%) [3]: 76.6%
Sustained clinical cure 30 days after end of treatment (patients/N) [3]: 193/252
Courses resulting in treatment success ([4]; 18 courses of fidaxomicin in 14 patients with RCDI): 18
RCDI [4, 8]: 2
RCDI (%) [4, 8]: 25%
RCDI ([4]; FID-TP: taper 200 mg daily 7 days then 200 mg QOD 7-26 days, 7 courses): no RCDI
RCDI episodes [4, 9]: 2
RCDI episodes (%) [4, 9]: 66%
Average symptom-free interval (SFI) ([4]; following FID-CH): 240 days
Average symptom-free interval (SFI) ([4]; following FID-TP): 150 days
Average symptom-free interval (SFI) ([4]; following FID-TX): 73 days
